Reference: patent publication EP1935986B1, “Luminogenic and fluorogenic compounds and methods to detect molecules or conditions” (priority 2005, dated 2006)

What was measured:
luciferase = test: No-enzyme control: activity of luciferase towards the luciferin derivative (background luminescence)
Protocol: The reactions (Table 1) were assembled by first adding the water and 1 M BisTris solutions in individual 0.5 ml microfuge tubes, then adding the other components except for the GST #3 solution. Finally, the GST #3 (Figure 12) solution was added to the reactions, the resulting solution was mixed, and the time of addition noted. […]
The GST #3 addition was performed last and the solutions were mixed immediately after addition of GST #3. […] After mixing, the light produced by the solution was measured using a Turner TD 20/20 luminometer.
After assembly, the enzyme stock solutions were diluted 1:10 into 10 mM HEPES, pH 7.5 and the following additions were made to the reactions.
A 5 µl sample of the luciferol DMF solution was added to each of the reactions above and a timer was started upon the addition of the first luciferol/DMF solution to reaction 1. All reactions were kept at room temperature.
After incubating 5 minutes at room temperature, the light produced by these samples was measured using a Turner TD 20 luminometer.
To initiate the conversions, 5 µl of luciferol solution was added to reactions […], 6-9, and 11-15, and 10 µl of luciferol was added to reactions 5 and 10 and the tubes mixed after that addition. Immediately after luciferol addition to reaction 1, a timer was started and the time of luciferol addition to the other tubes noted. After mixing, reaction 11-15 were placed at 37°C.
After incubating 10 minutes at room temperature, the light produced by these samples was read using a Turner TD 20 luminometer (Table 18).
To initiate Step 1, 45 µl of enzyme and buffer were added to each well.
Solution A and Solution B are components of the NADPH Regeneration System (V9510, Promega Corp., Madison WI). […] Solution B contains 40 units/ml glucose-6-phosphate dehydrogenase in 5 mM citrate pH 5.5.

[1] = system: calf intestinal alkaline phosphatase; test: Luminescent alkaline phosphatase assay with AP 4, luciferase and ATP; assay type: biochemical; settings: 1 µM AP 4
Protocol: Alkaline Phosphatase (Promega Corp. M1821) was diluted in 50 mM Tris Cl, pH 9.3, 1 mM MgCl2, 0.1 mM ZnCl2 to a concentration of 1 fmol/µl to 0.01 zeptomole/µl.
A reaction solution was assembled containing 1 µM AP 4 (Figure 69); 100 µg/ml of the thermostable luciferase, 2 mM ATP; 10 mM MgCl2; 100 µM ZnCl2 in 50 mM Tris Cl, pH 8.5. This solution was allowed to incubate for 1 hour at room temperature to reduce background light production.
Quadruplicate wells in a luminometer plate (Nunc Maxisorb plate) were given 10 µl of the diluted alkaline phosphatase stocks and 100 µl of reaction solution. The plate was incubated at room temperature for 30 minutes, then the light produced by the solutions was measured using a Veritas Luminometer.

[2] = system: thermostable luciferase (Luc 146-1H2); test: Residual thermostable luciferase activity after reaction with luciferin derivatives (Steady Glo); assay type: biochemical; settings: Substrate 100
Protocol: This stock was used to produce enzyme stock solution having of 200 µg/ml enzyme solution in 1 mg/ml BSA, 200 mM HEPES buffer, pH 8.0, 20 mM MgCl2.
Solutions were made using a 1 M DTT solution, pH adjusted to 8.0, a 20 mM Coenzyme A solution in water (both described in examples above), a 100 mM ATP solution and water to create the following solutions: Sol'A, 100 µM ATP; Sol'B, 100 µM ATP, 4 mM Coenzyme A; Sol'n C, 100 µM ATP, 400 mM DTT, and; Sol'n D, 100 µM ATP, 4 mM Coenzyme A and 400 mM DTT.
After assembly, the reactions were initiated by addition of 25 µl of the thermostable luciferase stock solution above and mixing the tube contents. A 50 µl sample was immediately removed and placed in a luminometer tube and the light read and the tube then replaced in a tube rack at room temperature. While the light reading was being taken, a 5 µl sample of the remaining reaction (which was kept at room temperature) was diluted into 495 µl of 50 mM BisTris, pH 6.5, 1 mg/ml BSA, 1 mM EDTA prechilled to 4°C and the tube mixed and placed on ice. The light produced by the samples in the luminometer tubes were re-read at 20, 40, 60, 90 and 120 minutes post enzyme addition. Additional 5 µl samples were taken and diluted as above at 60 and 120 minutes post enzyme addition. Once all these readings and samples were taken, 50 µl of the diluted samples was mixed with 50 µl of Steady Glo in luminometer tubes, the tubes incubated 10 minutes on ice then the light produced was read on a Turner TD 20/20 luminometer.

O=C(O)[C@H]1CSC(c2nc3ccc(OCc4ccc(OP(=O)(O)O)cc4)cc3s2)=N1 [AP-4, 6-(4-phosphoric acid benzylether) luciferin]
Avg Reading (luciferase): 2624.5
light reading, Reaction 1 (luciferase): 2620
light reading, Reaction 2 (luciferase): 2735
light reading, Reaction 3 (luciferase): 2612
light reading, Reaction 4 (luciferase): 2531
Net Reading ([1]; # AP molecules 0): 0
Avg Reading ([1]; # AP molecules 6): 2714.67
Net Reading ([1]; # AP molecules 6): 89
light reading, Reaction 1 ([1]; # AP molecules 6): 2706
light reading, Reaction 2 ([1]; # AP molecules 6): 2807
light reading, Reaction 3 ([1]; # AP molecules 6): 2631
Avg Reading ([1]; # AP molecules 60): 2772.5
Net Reading ([1]; # AP molecules 60): 148
light reading, Reaction 1 ([1]; # AP molecules 60): 2920
light reading, Reaction 2 ([1]; # AP molecules 60): 2795
light reading, Reaction 3 ([1]; # AP molecules 60): 2728
light reading, Reaction 4 ([1]; # AP molecules 60): 2647
Avg Reading ([1]; # AP molecules 600): 3079.8
Net Reading ([1]; # AP molecules 600): 455
light reading, Reaction 1 ([1]; # AP molecules 600): 3118
light reading, Reaction 2 ([1]; # AP molecules 600): 3051
light reading, Reaction 3 ([1]; # AP molecules 600): 3345
light reading, Reaction 4 ([1]; # AP molecules 600): 2805
Avg Reading ([1]; # AP molecules 6,000): 3185
Net Reading ([1]; # AP molecules 6,000): 560
light reading, Reaction 1 ([1]; # AP molecules 6,000): 3189
light reading, Reaction 2 ([1]; # AP molecules 6,000): 3144
light reading, Reaction 3 ([1]; # AP molecules 6,000): 3002
light reading, Reaction 4 ([1]; # AP molecules 6,000): 3405
Avg Reading ([1]; # AP molecules 60,000): 5685.3
Net Reading ([1]; # AP molecules 60,000): 3060
light reading, Reaction 1 ([1]; # AP molecules 60,000): 5956
light reading, Reaction 2 ([1]; # AP molecules 60,000): 5641
light reading, Reaction 3 ([1]; # AP molecules 60,000): 5416
light reading, Reaction 4 ([1]; # AP molecules 60,000): 5728
Avg Reading ([1]; # AP molecules 600,000): 30658.5
Net Reading ([1]; # AP molecules 600,000): 28034
light reading, Reaction 1 ([1]; # AP molecules 600,000): 30042
light reading, Reaction 2 ([1]; # AP molecules 600,000): 31132
light reading, Reaction 3 ([1]; # AP molecules 600,000): 29781
light reading, Reaction 4 ([1]; # AP molecules 600,000): 31679
Avg Reading ([1]; # AP molecules 6,000,000): 274510.5
Net Reading ([1]; # AP molecules 6,000,000): 271886
light reading, Reaction 1 ([1]; # AP molecules 6,000,000): 281115
light reading, Reaction 2 ([1]; # AP molecules 6,000,000): 254693
light reading, Reaction 3 ([1]; # AP molecules 6,000,000): 265592
light reading, Reaction 4 ([1]; # AP molecules 6,000,000): 296642
Avg Reading ([1]; # AP molecules 60,000,000): 2394497
Net Reading ([1]; # AP molecules 60,000,000): 2391872
light reading, Reaction 1 ([1]; # AP molecules 60,000,000): 2639163
light reading, Reaction 2 ([1]; # AP molecules 60,000,000): 2283882
light reading, Reaction 3 ([1]; # AP molecules 60,000,000): 2320675
light reading, Reaction 4 ([1]; # AP molecules 60,000,000): 2334267

O=C(O)[C@H]1CSC(c2nc3ccc(OCCCl)cc3s2)=N1 [L' in-CEE]
light values obtained upon addition of the diluted reaction samples into Steady Glo reagent ([2]; + Co A & DTT, Time Sample Taken 0 min): 1745
light values obtained upon addition of the diluted reaction samples into Steady Glo reagent ([2]; + Co A & DTT, Time Sample Taken 60 min): 1319
light values obtained upon addition of the diluted reaction samples into Steady Glo reagent ([2]; + Co A & DTT, Time Sample Taken 120 min): 1343
light values obtained upon addition of the diluted reaction samples into Steady Glo reagent ([2]; + Co A, Time Sample Taken 0 min): 1127
light values obtained upon addition of the diluted reaction samples into Steady Glo reagent ([2]; + Co A, Time Sample Taken 60 min): 1055
light values obtained upon addition of the diluted reaction samples into Steady Glo reagent ([2]; + Co A, Time Sample Taken 120 min): 770.5
light values obtained upon addition of the diluted reaction samples into Steady Glo reagent ([2]; + DTT, Time Sample Taken 0 min): 1168
light values obtained upon addition of the diluted reaction samples into Steady Glo reagent ([2]; + DTT, Time Sample Taken 60 min): 501.5
light values obtained upon addition of the diluted reaction samples into Steady Glo reagent ([2]; + DTT, Time Sample Taken 120 min): 1478
light values obtained upon addition of the diluted reaction samples into Steady Glo reagent ([2]; Alone, Time Sample Taken 0 min): 1262
light values obtained upon addition of the diluted reaction samples into Steady Glo reagent ([2]; Alone, Time Sample Taken 60 min): 1203
light values obtained upon addition of the diluted reaction samples into Steady Glo reagent ([2]; Alone, Time Sample Taken 120 min): 1273
